What is called IC50 is the concentration that inhibits the measured activity by half.

The target in one assay is T1, LRRK2 WT (Homo sapiens, UniProt Q5S007).
T1 construct: purchased Life Technologies PR8604B
Kind of assay: LRRK2 Kinase Activity Assay (LanthaScreen TR-FRET), wild type. Conditions: recombinant wild type LRRK2, 25 μM ATP, 400 nM LRRKtide, 60 min; class symbols. It counts as biochemical. The method in brief: (§1)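 IC50 fitted to the compound-dependent loss of TR-FRET signal. Each kinase form, wild type or G2019S, phosphorylated the fluorescein-tagged ERM-derived LRRKtide in the presence of ATP and compound dilutions over 60 min at room temperature; quench contained 10 mM EDTA and 2 nM anti-pERM antibody (final).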
For orientation: Time-resolved FRET reads energy transfer from a long-lived donor to a nearby acceptor.

A further assay concerns the target T2, LRRK2 G2019S (Homo sapiens, UniProt Q5S007, G2019S).
T2 construct: purchased Life Technologies PV4881
Kind of assay: LRRK2 Kinase Activity Assay (LanthaScreen TR-FRET), G2019S. Conditions: recombinant G2019S-LRRK2, 25 μM ATP, 400 nM LRRKtide, 60 min; class symbols. It counts as biochemical. The method in brief: as §1

T1 sequence (Q5S007 whole entry): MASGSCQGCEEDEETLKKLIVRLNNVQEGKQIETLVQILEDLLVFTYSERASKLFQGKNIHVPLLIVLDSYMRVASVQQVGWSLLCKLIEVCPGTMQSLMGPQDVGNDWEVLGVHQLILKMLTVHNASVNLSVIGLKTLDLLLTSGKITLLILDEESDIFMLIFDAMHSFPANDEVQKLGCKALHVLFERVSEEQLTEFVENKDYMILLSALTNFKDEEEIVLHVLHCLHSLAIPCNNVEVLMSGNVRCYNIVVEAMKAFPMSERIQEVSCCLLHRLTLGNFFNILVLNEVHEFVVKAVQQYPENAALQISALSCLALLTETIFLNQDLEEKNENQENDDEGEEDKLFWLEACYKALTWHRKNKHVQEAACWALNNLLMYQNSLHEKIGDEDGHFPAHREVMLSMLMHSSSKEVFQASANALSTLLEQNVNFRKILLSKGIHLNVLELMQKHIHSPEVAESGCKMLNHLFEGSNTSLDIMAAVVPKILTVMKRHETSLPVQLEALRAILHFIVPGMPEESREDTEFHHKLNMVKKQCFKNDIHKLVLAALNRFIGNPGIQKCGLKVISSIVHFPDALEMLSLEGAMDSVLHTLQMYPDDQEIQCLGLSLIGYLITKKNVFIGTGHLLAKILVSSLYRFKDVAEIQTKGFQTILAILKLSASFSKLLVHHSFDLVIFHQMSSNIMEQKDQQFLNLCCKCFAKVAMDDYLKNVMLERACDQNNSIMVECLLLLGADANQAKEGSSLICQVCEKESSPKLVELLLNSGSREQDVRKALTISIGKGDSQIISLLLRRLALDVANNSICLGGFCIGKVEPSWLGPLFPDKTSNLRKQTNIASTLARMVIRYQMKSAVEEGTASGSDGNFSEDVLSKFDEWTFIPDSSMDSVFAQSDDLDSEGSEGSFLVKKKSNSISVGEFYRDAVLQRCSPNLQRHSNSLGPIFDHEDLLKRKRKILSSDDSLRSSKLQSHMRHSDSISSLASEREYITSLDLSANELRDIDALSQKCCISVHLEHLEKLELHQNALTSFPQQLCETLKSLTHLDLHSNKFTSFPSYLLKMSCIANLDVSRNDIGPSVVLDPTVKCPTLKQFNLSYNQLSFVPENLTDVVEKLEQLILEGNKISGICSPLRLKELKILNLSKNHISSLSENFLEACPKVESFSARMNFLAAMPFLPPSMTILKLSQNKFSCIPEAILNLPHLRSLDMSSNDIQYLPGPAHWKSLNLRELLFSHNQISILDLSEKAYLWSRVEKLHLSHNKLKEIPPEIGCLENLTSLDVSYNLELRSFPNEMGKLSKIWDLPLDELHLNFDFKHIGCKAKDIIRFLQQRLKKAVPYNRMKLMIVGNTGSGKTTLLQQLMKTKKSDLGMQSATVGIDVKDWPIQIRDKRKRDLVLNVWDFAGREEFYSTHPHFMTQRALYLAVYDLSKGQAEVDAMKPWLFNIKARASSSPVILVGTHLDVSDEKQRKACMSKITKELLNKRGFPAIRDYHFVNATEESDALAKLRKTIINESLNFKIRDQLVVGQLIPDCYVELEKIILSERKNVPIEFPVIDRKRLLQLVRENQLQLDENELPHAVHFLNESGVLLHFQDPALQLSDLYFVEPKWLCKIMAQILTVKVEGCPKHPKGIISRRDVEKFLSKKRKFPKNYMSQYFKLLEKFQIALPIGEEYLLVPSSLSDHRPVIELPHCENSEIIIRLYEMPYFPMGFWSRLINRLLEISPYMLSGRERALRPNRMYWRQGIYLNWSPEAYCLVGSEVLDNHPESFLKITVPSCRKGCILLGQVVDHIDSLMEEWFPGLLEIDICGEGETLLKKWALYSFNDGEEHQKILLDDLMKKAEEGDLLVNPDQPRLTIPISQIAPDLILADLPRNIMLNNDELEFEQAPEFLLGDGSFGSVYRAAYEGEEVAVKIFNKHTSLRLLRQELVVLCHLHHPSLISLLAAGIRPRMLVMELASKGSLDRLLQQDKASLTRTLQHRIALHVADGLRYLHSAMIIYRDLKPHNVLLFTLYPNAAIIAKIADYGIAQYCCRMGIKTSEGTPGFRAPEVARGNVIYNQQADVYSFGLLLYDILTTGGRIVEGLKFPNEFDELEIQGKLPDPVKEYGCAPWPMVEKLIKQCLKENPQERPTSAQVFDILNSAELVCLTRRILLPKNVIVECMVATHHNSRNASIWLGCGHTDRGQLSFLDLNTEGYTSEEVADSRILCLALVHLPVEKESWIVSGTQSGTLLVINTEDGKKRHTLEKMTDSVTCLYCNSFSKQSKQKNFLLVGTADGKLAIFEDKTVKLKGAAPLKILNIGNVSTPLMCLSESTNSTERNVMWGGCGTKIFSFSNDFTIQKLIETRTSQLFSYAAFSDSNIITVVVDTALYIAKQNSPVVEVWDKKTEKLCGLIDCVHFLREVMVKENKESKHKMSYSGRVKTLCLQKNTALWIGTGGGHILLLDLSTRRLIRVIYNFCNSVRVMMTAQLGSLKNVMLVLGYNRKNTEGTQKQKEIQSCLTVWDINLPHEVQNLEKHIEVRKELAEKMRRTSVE
T2 sequence (Q5S007 whole entry G2019S): as the sequence (Q5S007 whole entry) above, with G2019S counted along it

Take `Cn1ccc(-c2n[nH]c3ccc(N[C@H]4CCCc5cc(C#N)cnc54)cc23)c1` (single isomer, unassigned) [Example 149, enantiomer 1, 8-((3-(1-Methyl-1H-pyrrol-3-yl)-1H-indazol-5-yl)amino)-5,6,7,8-tetrahydroquinoline-3-carbonitrile]: the IC50 at LRRK2 WT and on LRRK2 G2019S was 0.1 to 1 µM throughout.
For the molecule `Cn1ccc(-c2n[nH]c3ccc(N[C@H]4CCCc5cc(C#N)cnc54)cc23)c1` (single isomer, unassigned) [Example 149, enantiomer 2, 8-((3-(1-Methyl-1H-pyrrol-3-yl)-1H-indazol-5-yl)amino)-5,6,7,8-tetrahydroquinoline-3-carbonitrile], the IC50 at LRRK2 WT and on LRRK2 G2019S was < 0.1 µM throughout.
`Cc1c(C#N)cnc2c1CCC[C@@H]2Nc1ccc2[nH]nc(-c3cnco3)c2c1` (single isomer, unassigned) [Example 150, enantiomer 1, 4-Methyl-8-((3-(oxazol-5-yl)-1H-indazol-5-yl)amino)-5,6,7,8-tetrahydroquinoline-3-carbonitrile]: the IC50 at LRRK2 WT and on LRRK2 G2019S was 0.1 to 1 µM in each case.
Turning to `Cc1c(C#N)cnc2c1CCC[C@@H]2Nc1ccc2[nH]nc(-c3cnco3)c2c1` (single isomer, unassigned) [Example 150, enantiomer 2, 4-Methyl-8-((3-(oxazol-5-yl)-1H-indazol-5-yl)amino)-5,6,7,8-tetrahydroquinoline-3-carbonitrile], the IC50 at LRRK2 WT and on LRRK2 G2019S was < 0.1 µM each time.
In the case of `N#Cc1ccc2c(c1F)CC(F)(F)[C@@H]2Nc1ccc2[nH]nc(-c3cnco3)c2c1` (single isomer, unassigned) [Example 151, enantiomer 1, 2,2,4-Trifluoro-1-((3-(oxazol-5-yl)-1H-indazol-5-yl)amino)-2,3-dihydro-1H-indene-5-carbonitrile], the IC50 was 0.1 to 1 µM at LRRK2 WT and < 0.1 µM at LRRK2 G2019S.
For `N#Cc1ccc2c(c1)CCCC2Oc1ccc2[nH]nc(C(F)(F)F)c2c1` (single isomer, unassigned) [Example 152, enantiomer 1, 5-((3-(Trifluoromethyl)-1H-indazol-5-yl)oxy)-5,6,7,8-tetrahydronaphthalene-2-carbonitrile] the same measures were 1 to 10 µM and 1 to 10 µM.
`N#Cc1ccc2c(c1)CCCC2Nc1ccc2[nH]nc(C(F)(F)F)c2c1` (single isomer, unassigned) [Example 153, enantiomer 1, 5-((3-(Trifluoromethyl)-1H-indazol-5-yl)amino)-5,6,7,8-tetrahydronaphthalene-2-carbonitrile]: the IC50 is 1 to 10 µM at LRRK2 WT and < 0.1 µM on LRRK2 G2019S.
For `COc1c(C#N)cnc2c1CC[C@@H]2Nc1ccc2[nH]nc(-c3cnco3)c2c1` (single isomer, unassigned) [Example 154, enantiomer 2, 4-Methoxy-7-((3-(oxazol-5-yl)-1H-indazol-5-yl)amino)-6,7-dihydro-5H-cyclopenta[b]pyridine-3-carbonitrile] the same measures were < 0.1 µM and < 0.1 µM.
For `Cc1ncc(-c2n[nH]c3ccc(N[C@@H]4c5ccc(C#N)cc5CC4(F)F)cc23)o1` (single isomer, unassigned) [Example 155, enantiomer 1, 2,2-Difluoro-1-((3-(2-methyloxazol-5-yl)-1H-indazol-5-yl)amino)-2,3-dihydro-1H-indene-5-carbonitrile], in that order: < 0.1 µM and < 0.1 µM.
As for `Cc1ncc(-c2n[nH]c3ccc(O[C@H]4CCc5c4ccc(C#N)c5F)cc23)o1` (single isomer, unassigned) [Example 156, enantiomer 1, 4-Fluoro-1-((3-(2-methyloxazol-5-yl)-1H-indazol-5-yl)oxy)-2,3-dihydro-1H-indene-5-carbonitrile], the IC50 at LRRK2 WT and on LRRK2 G2019S was < 0.1 µM each time.
In the case of `N#Cc1ccc2c(c1)CCC[C@@H]2Nc1ccc2[nH]nc(-c3ccn[nH]3)c2c1` (single isomer, unassigned) [Example 157, enantiomer 1, 5-((3-(1H-Pyrazol-5-yl)-1H-indazol-5-yl)amino)-5,6,7,8-tetrahydronaphthalene-2-carbonitrile], the IC50 at LRRK2 WT and on LRRK2 G2019S was 0.1 to 1 µM throughout.
Take `N#Cc1ccc2c(c1)CCC[C@@H]2Nc1ccc2[nH]nc(-c3ccn[nH]3)c2c1` (single isomer, unassigned) [Example 157, enantiomer 2, 5-((3-(1H-Pyrazol-5-yl)-1H-indazol-5-yl)amino)-5,6,7,8-tetrahydronaphthalene-2-carbonitrile]: the IC50 on LRRK2 WT and on LRRK2 G2019S was < 0.1 µM in each case.
Consider `Cc1cc(-c2n[nH]c3ccc(N[C@H]4CCCc5cc(C#N)cnc54)cc23)sn1` (single isomer, unassigned) [Example 158, enantiomer 1, 8-((3-(3-Methylisothiazol-5-yl)-1H-indazol-5-yl)amino)-5,6,7,8-tetrahydroquinoline-3-carbonitrile], for which the IC50 on LRRK2 WT and on LRRK2 G2019S was < 0.1 µM throughout.
Take `Cc1ncc(-c2n[nH]c3ccc(N[C@H]4CCCc5cc(C#N)c(C)nc54)cc23)o1` (single isomer, unassigned) [Example 159, enantiomer 1, 2-Methyl-8-((3-(2-methyloxazol-5-yl)-1H-indazol-5-yl)amino)-5,6,7,8-tetrahydroquinoline-3-carbonitrile]: the IC50 on LRRK2 WT and on LRRK2 G2019S was < 0.1 µM in each case.
Regarding `Cc1ncc(-c2n[nH]c3ccc(O[C@H]4CCc5cc(C#N)c(F)cc54)cc23)o1` (single isomer, unassigned) [Example 160, enantiomer 1, 6-Fluoro-1-((3-(2-methyloxazol-5-yl)-1H-indazol-5-yl)oxy)-2,3-dihydro-1H-indene-5-carbonitrile], the IC50 on LRRK2 WT and on LRRK2 G2019S was < 0.1 µM each time.
As for `N#Cc1cnc2c(c1)CCC[C@@H]2Oc1ccc2[nH]nc(-c3cnccn3)c2c1` (single isomer, unassigned) [Example 161, enantiomer 1, 8-((3-(Pyrazin-2-yl)-1H-indazol-5-yl)oxy)-5,6,7,8-tetrahydroquinoline-3-carbonitrile], the IC50 on LRRK2 WT and on LRRK2 G2019S was < 0.1 µM each time.
With `N#Cc1cnc2c(c1)CCC[C@@H]2Oc1ccc2[nH]nc(-c3cnccn3)c2c1` (single isomer, unassigned) [Example 161, enantiomer 2, 8-((3-(Pyrazin-2-yl)-1H-indazol-5-yl)oxy)-5,6,7,8-tetrahydroquinoline-3-carbonitrile], the results for the IC50 at LRRK2 WT and at LRRK2 G2019S were 0.1 to 1 µM and < 0.1 µM, respectively.
For the molecule `[2H][C@]1(Nc2ccc3[nH]nc(-c4cnco4)c3c2)CCCc2cc(C#N)cnc21` (single isomer, unassigned) [Example 162, enantiomer 1, 8-Deuterio-8-((3-(oxazol-5-yl)-1H-indazol-5-yl)amino)-5,6,7,8-tetrahydroquinoline-3-carbonitrile], the IC50 on LRRK2 WT and on LRRK2 G2019S was 0.1 to 1 µM each time.
As to `[2H][C@]1(Nc2ccc3[nH]nc(-c4cnco4)c3c2)CCCc2cc(C#N)cnc21` (single isomer, unassigned) [Example 162, enantiomer 2, 8-Deuterio-8-((3-(oxazol-5-yl)-1H-indazol-5-yl)amino)-5,6,7,8-tetrahydroquinoline-3-carbonitrile], the IC50 on LRRK2 WT and at LRRK2 G2019S was < 0.1 µM each time.
Consider `N#Cc1cnc2c(n1)CCC[C@@H]2Oc1ccc2[nH]nc(-c3cnco3)c2c1` (single isomer, unassigned) [Example 163, enantiomer 1, 5-[[3-(1,3-Oxazol-5-yl)-1H-indazol-5-yl]oxy]-5,6,7,8-tetrahydroquinoxaline-2-carbonitrile], for which the IC50 was 0.1 to 1 µM on LRRK2 WT and < 0.1 µM at LRRK2 G2019S.
For `Cc1nc2c(c(C)c1C#N)CCC[C@@H]2Nc1ccc2[nH]nc(-c3cnco3)c2c1` (single isomer, unassigned) [Example 164, enantiomer 1, 2,4-Dimethyl-8-[[3-(1,3-oxazol-5-yl)-1H-indazol-5-yl]amino]-5,6,7,8-tetrahydroquinoline-3-carbonitrile] the same measures were 0.1 to 1 µM and < 0.1 µM.
For `COc1nc2c(c(C)c1C#N)CCC[C@@H]2Nc1ccc2[nH]nc(-c3cnco3)c2c1` (single isomer, unassigned) [Example 165, enantiomer 1, 2-Methoxy-4-methyl-8-[[3-(1,3-oxazol-5-yl)-1H-indazol-5-yl]amino]-5,6,7,8-tetrahydroquinoline-3-carbonitrile] the same measures were 0.1 to 1 µM and < 0.1 µM.
For `Cc1c(C#N)c(Cl)nc2c1CC[C@@H]2Oc1ccc2[nH]nc(-c3cnco3)c2c1` (single isomer, unassigned) [Example 166, enantiomer 1, 2-Chloro-4-methyl-7-[[3-(1,3-oxazol-5-yl)-1H-indazol-5-yl]oxy]-6,7-dihydro-5H-cyclopenta[b]pyridine-3-carbonitrile] the same measures were < 0.1 µM and < 0.1 µM.
On to `N#Cc1c(F)cc2c(c1F)CC[C@@H]2Oc1ccc2[nH]nc(-c3cnco3)c2c1` (single isomer, unassigned) [Example 167, enantiomer 1, 4,6-Difluoro-1-[[3-(1,3-oxazol-5-yl)-1H-indazol-5-yl]oxy]-2,3-dihydro-1H-indene-5-carbonitrile], for which the IC50 on LRRK2 WT was 0.1 to 1 µM; at LRRK2 G2019S it was < 0.1 µM.
Consider `C[C@@H]1C[C@@H](Nc2ccc3[nH]nc(-c4cnco4)c3c2)c2ccc(C#N)cc21` (single isomer, unassigned) [Example 168, enantiomer 1, trans-3-Methyl-1-[[3-(1,3-oxazol-5-yl)-1H-indazol-5-yl]amino]-2,3-dihydro-1H-indene-5-carbonitrile], for which the IC50 on LRRK2 WT was 0.1 to 1 µM; on LRRK2 G2019S, < 0.1 µM.

(Values after US20230148214A1, “INDAZOLES AND AZAINDAZOLES AS LRRK2 INHIBITORS” (ESCAPE Bio, Inc., priority 2020, published 2023).)
